{"source": "ChEMBL document CHEMBL1124555", "about": "“9-Amino-1,2,3,4-tetrahydroacridin-1-ols: synthesis and evaluation as potential Alzheimer's disease therapeutics” (J Med Chem, 1989)", "key": {"Acetylcholinesterase [1]": {"biological_target": "T1, Acetylcholinesterase (Rattus norvegicus, UniProt P37136)", "T1 sequence (P37136 whole entry)": "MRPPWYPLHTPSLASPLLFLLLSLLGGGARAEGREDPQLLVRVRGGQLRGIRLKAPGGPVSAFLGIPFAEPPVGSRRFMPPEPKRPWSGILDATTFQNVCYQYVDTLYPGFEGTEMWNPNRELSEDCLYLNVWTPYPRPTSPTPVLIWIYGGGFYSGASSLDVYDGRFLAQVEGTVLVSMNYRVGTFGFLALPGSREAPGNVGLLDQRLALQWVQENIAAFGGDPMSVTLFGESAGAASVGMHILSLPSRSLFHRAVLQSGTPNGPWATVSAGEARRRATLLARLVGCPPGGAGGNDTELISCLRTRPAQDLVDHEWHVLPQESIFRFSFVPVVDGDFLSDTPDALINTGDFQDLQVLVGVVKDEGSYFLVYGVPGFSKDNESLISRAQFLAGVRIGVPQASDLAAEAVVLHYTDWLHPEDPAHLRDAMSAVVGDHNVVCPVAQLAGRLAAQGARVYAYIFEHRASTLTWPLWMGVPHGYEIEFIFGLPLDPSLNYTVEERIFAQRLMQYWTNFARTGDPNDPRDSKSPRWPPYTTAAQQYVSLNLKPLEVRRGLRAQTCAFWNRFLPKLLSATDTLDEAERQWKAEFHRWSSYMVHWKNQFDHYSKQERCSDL", "description": "In vitro inhibition against acetylcholinesterase in rat striata."}, "[2]": {"biological_target": "Sodium-dependent dopamine transporter (Rattus norvegicus, UniProt P23977)", "sequence (P23977 whole entry)": "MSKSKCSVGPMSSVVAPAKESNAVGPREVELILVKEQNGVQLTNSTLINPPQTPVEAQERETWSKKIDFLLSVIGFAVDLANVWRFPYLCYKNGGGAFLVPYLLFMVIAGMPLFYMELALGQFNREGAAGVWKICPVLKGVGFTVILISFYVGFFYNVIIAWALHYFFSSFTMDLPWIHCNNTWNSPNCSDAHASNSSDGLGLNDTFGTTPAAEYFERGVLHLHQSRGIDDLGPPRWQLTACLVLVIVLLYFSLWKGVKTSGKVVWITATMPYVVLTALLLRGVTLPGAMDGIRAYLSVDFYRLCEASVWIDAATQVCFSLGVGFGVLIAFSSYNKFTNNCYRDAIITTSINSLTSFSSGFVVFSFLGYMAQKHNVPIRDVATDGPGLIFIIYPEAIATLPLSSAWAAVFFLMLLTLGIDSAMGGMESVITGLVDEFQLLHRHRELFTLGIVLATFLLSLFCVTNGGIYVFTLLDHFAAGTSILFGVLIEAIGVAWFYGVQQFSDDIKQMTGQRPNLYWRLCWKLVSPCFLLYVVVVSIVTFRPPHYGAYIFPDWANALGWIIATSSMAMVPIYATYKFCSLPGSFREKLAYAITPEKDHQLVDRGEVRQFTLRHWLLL", "type": "functional", "description": "Inhibition of the reuptake of dopamine in rat corpora striata."}, "[3]": {"biological_target": "Sodium-dependent serotonin transporter (Rattus norvegicus, UniProt P31652)", "sequence (P31652 whole entry)": "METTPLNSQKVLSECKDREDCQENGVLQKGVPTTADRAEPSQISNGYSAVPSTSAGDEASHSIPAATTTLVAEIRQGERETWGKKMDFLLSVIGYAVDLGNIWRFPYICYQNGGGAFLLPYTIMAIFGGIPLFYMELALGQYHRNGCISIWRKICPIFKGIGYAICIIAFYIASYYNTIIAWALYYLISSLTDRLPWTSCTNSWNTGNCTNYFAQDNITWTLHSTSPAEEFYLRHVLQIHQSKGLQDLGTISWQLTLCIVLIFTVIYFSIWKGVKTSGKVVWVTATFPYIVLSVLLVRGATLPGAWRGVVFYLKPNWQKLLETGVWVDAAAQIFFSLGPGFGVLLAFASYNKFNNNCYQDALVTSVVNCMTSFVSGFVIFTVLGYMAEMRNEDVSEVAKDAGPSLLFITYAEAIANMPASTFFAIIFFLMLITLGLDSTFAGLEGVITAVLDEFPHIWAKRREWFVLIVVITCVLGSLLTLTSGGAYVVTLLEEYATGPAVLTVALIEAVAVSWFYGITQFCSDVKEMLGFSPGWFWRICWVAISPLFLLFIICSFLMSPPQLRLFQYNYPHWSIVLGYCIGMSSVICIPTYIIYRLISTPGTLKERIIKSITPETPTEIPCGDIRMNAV", "type": "functional", "description": "Inhibition of serotonin reuptake in rat whole brains without cerebellum"}, "[4]": {"test": "Toxicity was evaluated in rats, after intraperitoneal administration;Value ranges from(40-80)", "type": "organism-based", "conditions": "rat, in vivo, ip"}, "Rattus norvegicus": {"species_on_record": "Rattus norvegicus", "test": "cells", "description": "Compound was evaluated for inhibition of the reuptake of norepinephrine"}, "Mus musculus [5]": {"species_on_record": "Mus musculus", "type": "functional", "conditions": "at 0.16 mg/kg", "description": "Reversal of scopolamine-induced memory impairment in mice at 0.16 mg/Kg administered subcutaneously."}, "Mus musculus [6]": {"species_on_record": "Mus musculus", "type": "functional", "conditions": "at […]", "description": "Reversal of scopolamine-induced memory impairment in mice at 0.31 mg/Kg administered subcutaneously."}, "Mus musculus [7]": {"species_on_record": "Mus musculus", "type": "functional", "conditions": "at 0.63 mg/kg", "description": "Reversal of scopolamine-induced memory impairment in mice at 0.63 mg/Kg administered subcutaneously."}, "Mus musculus [8]": {"species_on_record": "Mus musculus", "type": "functional", "conditions": "at 1.25 mg/kg", "description": "Reversal of scopolamine-induced memory impairment in mice at 1.25 mg/Kg administered subcutaneously."}, "Mus musculus [9]": {"species_on_record": "Mus musculus", "type": "functional", "conditions": "at 2.5 mg/kg", "description": "Reversal of scopolamine-induced memory impairment in mice at 2.5 mg/Kg administered subcutaneously."}, "Mus musculus [10]": {"species_on_record": "Mus musculus", "type": "functional", "conditions": "at 5 mg/kg", "description": "Reversal of scopolamine-induced memory impairment in mice at 5 mg/Kg administered subcutaneously."}, "[11]": {"test": "Toxicity was evaluated in rats, after intraperitoneal administration;Value ranges from (40-80)", "type": "organism-based", "conditions": "rat, in vivo, ip"}, "[12]": {"biological_target": "Norepinephrine transporter (Rattus norvegicus, UniProt Q9WTR4)", "sequence (Q9WTR4 whole entry)": "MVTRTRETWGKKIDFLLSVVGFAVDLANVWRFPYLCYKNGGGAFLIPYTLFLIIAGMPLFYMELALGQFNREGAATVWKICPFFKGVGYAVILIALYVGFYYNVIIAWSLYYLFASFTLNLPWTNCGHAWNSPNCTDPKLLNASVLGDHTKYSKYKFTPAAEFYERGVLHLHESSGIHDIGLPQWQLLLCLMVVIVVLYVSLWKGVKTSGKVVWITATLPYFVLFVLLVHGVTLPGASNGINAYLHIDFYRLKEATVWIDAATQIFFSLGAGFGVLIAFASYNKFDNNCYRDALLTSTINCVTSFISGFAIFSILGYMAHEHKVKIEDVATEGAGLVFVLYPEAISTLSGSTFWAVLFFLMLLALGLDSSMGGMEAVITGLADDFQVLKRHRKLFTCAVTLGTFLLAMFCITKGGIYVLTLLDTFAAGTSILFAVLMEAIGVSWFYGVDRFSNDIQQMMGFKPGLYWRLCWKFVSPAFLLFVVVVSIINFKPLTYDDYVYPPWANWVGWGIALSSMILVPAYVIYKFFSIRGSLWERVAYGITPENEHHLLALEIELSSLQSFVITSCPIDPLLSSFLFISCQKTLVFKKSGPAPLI", "description": "Inhibition of norepinephrine reuptake in rat whole brains minus cerebellar"}, "Mus musculus [13]": {"test_system": "Mus musculus", "test": "Intra peritoneal administration for the reversal of tetrabenazine ptosis in mice", "type": "functional"}, "in vivo [14]": {"test": "in vivo", "conditions": "rat, ip", "description": "Toxicity evaluated in rats after intraperitoneal administration."}, "[15]": {"test": "Toxicity was evaluated in mice, after intraperitoneal administration;Value ranges from(83-107)", "type": "organism-based", "conditions": "mouse, in vivo, ip"}, "[16]": {"test": "Toxicity was evaluated in rats, after intraperitoneal administration;Value ranges from 50-60", "type": "organism-based", "conditions": "rat, in vivo, ip"}, "Mus musculus [17]": {"species_on_record": "Mus musculus", "test": "Compound was tested in nbm model of mice, for the dose at which reversal of retention deficit in lesioned animals and enhanced learning in sham-pperated animals was observed", "type": "functional"}, "Acetylcholinesterase [18]": {"biological_target": "T1, Acetylcholinesterase", "test": "In vitro inhibition against acetylcholinesterase in rat striatal", "type": "functional"}, "[19]": {"test": "Toxicity was evaluated in rats, after intraperitoneal administration;Value ranges from (40-80).", "type": "organism-based", "conditions": "rat, in vivo, ip"}, "in vivo [20]": {"test": "in vivo", "conditions": "mouse, ip"}}}
{"smiles": "CCCNc1c2c(nc3ccccc13)CCCC2O", "note": "(centres undefined)", "values": [{"measurement": "IC50", "setting": "Acetylcholinesterase [1]", "value": 13.3, "unit": "µM"}, {"measurement": "IC50", "setting": "[2]", "value": "> 20", "unit": "µM"}, {"measurement": "IC50", "setting": "[3]", "value": "> 20", "unit": "µM"}, {"measurement": "LD50", "setting": "[4]", "value": "< 80", "unit": "mg/kg"}, {"measurement": "IC50", "setting": "Rattus norvegicus", "value": "> 20", "unit": "µM"}]}
{"smiles": "CNc1c2c(nc3ccccc13)CCCC2O", "note": "(centres undefined)", "values": [{"measurement": "IC50", "setting": "Acetylcholinesterase [1]", "value": 1.76, "unit": "µM"}, {"measurement": "Animals", "setting": "Mus musculus [5]", "value": 0, "unit": "%"}, {"measurement": "Animals", "setting": "Mus musculus [6]", "value": 7, "unit": "%"}, {"measurement": "Animals", "setting": "Mus musculus [7]", "value": 0, "unit": "%"}, {"measurement": "Animals", "setting": "Mus musculus [8]", "value": 7, "unit": "%"}, {"measurement": "Animals", "setting": "Mus musculus [9]", "value": 7, "unit": "%"}, {"measurement": "Animals", "setting": "Mus musculus [10]", "value": 7, "unit": "%"}, {"measurement": "IC50", "setting": "[2]", "value": "> 20", "unit": "µM"}, {"measurement": "IC50", "setting": "[3]", "value": "> 20", "unit": "µM"}, {"measurement": "LD50", "setting": "[11]", "value": "< 80", "unit": "mg/kg"}, {"measurement": "IC50", "setting": "[12]", "value": "> 20", "unit": "µM"}]}
{"smiles": "Cc1ccccc1CNc1c2c(nc3ccccc13)CCCC2O", "note": "(centres undefined)", "values": [{"measurement": "IC50", "setting": "Acetylcholinesterase [1]", "value": 5.89, "unit": "µM"}, {"measurement": "Animals", "setting": "Mus musculus [5]", "value": 0, "unit": "%"}, {"measurement": "Animals", "setting": "Mus musculus [6]", "value": 7, "unit": "%"}, {"measurement": "Animals", "setting": "Mus musculus [7]", "value": 7, "unit": "%"}, {"measurement": "Animals", "setting": "Mus musculus [8]", "value": 13, "unit": "%"}, {"measurement": "Animals", "setting": "Mus musculus [9]", "value": 7, "unit": "%"}, {"measurement": "Animals", "setting": "Mus musculus [10]", "value": 0, "unit": "%"}, {"measurement": "ED50", "setting": "Mus musculus [13]", "value": 25.3, "unit": "mg/kg"}, {"measurement": "IC50", "setting": "[2]", "value": 0.25, "unit": "µM"}, {"measurement": "IC50", "setting": "[3]", "value": 9, "unit": "µM"}, {"measurement": "LD50", "setting": "[4]", "value": "< 80", "unit": "mg/kg"}, {"measurement": "IC50", "setting": "[12]", "value": 0.053, "unit": "µM"}]}
{"smiles": "Nc1c2c(nc3ccc(Cl)cc13)CCCC2O", "note": "(centres undefined)", "values": [{"measurement": "IC50", "setting": "Acetylcholinesterase [1]", "value": 24.7, "unit": "µM"}, {"measurement": "IC50", "setting": "Rattus norvegicus", "value": "> 10", "unit": "µM"}, {"measurement": "LD50", "setting": "in vivo [14]", "value": 80, "unit": "mg/kg"}]}
{"smiles": "OC1CCCc2nc3ccccc3c(NCc3ccccc3C(F)(F)F)c21", "note": "(centres undefined)", "values": [{"measurement": "IC50", "setting": "Acetylcholinesterase [1]", "value": 13.3, "unit": "µM"}, {"measurement": "Animals", "setting": "Mus musculus [5]", "value": 38, "unit": "%"}, {"measurement": "Animals", "setting": "Mus musculus [6]", "value": 23, "unit": "%"}, {"measurement": "Animals", "setting": "Mus musculus [7]", "value": 13, "unit": "%"}, {"measurement": "Animals", "setting": "Mus musculus [8]", "value": 20, "unit": "%"}, {"measurement": "Animals", "setting": "Mus musculus [9]", "value": 13, "unit": "%"}, {"measurement": "Animals", "setting": "Mus musculus [10]", "value": 33, "unit": "%"}, {"measurement": "ED50", "setting": "Mus musculus [13]", "value": 16.2, "unit": "mg/kg"}, {"measurement": "IC50", "setting": "[2]", "value": 0.95, "unit": "µM"}, {"measurement": "IC50", "setting": "[3]", "value": 3.8, "unit": "µM"}, {"measurement": "IC50", "setting": "[12]", "value": 0.081, "unit": "µM"}, {"measurement": "LD50", "setting": "in vivo [14]", "value": 80, "unit": "mg/kg"}]}
{"smiles": "OC1CCCc2nc3ccccc3c(NCc3ccccc3)c21", "note": "(centres undefined) [SURONACRINE]", "values": [{"measurement": "Animals", "setting": "Mus musculus [5]", "value": 27, "unit": "%"}, {"measurement": "Animals", "setting": "Mus musculus [6]", "value": 50, "unit": "%"}, {"measurement": "Animals", "setting": "Mus musculus [7]", "value": 20, "unit": "%"}, {"measurement": "Animals", "setting": "Mus musculus [8]", "value": 13, "unit": "%"}, {"measurement": "Animals", "setting": "Mus musculus [9]", "value": 21, "unit": "%"}, {"measurement": "Animals", "setting": "Mus musculus [10]", "value": 36, "unit": "%"}, {"measurement": "ED50", "setting": "Mus musculus [13]", "value": 27.4, "unit": "mg/kg"}, {"measurement": "LD50", "setting": "[15]", "value": 94, "unit": "mg/kg"}, {"measurement": "IC50", "setting": "[2]", "value": 0.3, "unit": "µM"}, {"measurement": "IC50", "setting": "[3]", "value": 11, "unit": "µM"}, {"measurement": "LD50", "setting": "[16]", "value": "< 60", "unit": "mg/kg"}, {"measurement": "Dose", "setting": "Mus musculus [17]", "value": 20, "unit": "mg/kg"}, {"measurement": "IC50", "setting": "Acetylcholinesterase [18]", "value": 32.2, "unit": "µM"}, {"measurement": "IC50", "setting": "[12]", "value": 0.07, "unit": "µM"}]}
{"smiles": "Nc1c2c(nc3ccccc13)CCCC2O", "note": "(centres undefined) [VELNACRINE]", "values": [{"measurement": "IC50", "setting": "Acetylcholinesterase [1]", "value": 4, "unit": "µM"}, {"measurement": "Animals", "setting": "Mus musculus [5]", "value": 14, "unit": "%"}, {"measurement": "Animals", "setting": "Mus musculus [6]", "value": 20, "unit": "%"}, {"measurement": "Animals", "setting": "Mus musculus [7]", "value": 33, "unit": "%"}, {"measurement": "Animals", "setting": "Mus musculus [8]", "value": 20, "unit": "%"}, {"measurement": "Animals", "setting": "Mus musculus [9]", "value": 31, "unit": "%"}, {"measurement": "Animals", "setting": "Mus musculus [10]", "value": 33, "unit": "%"}, {"measurement": "IC50", "setting": "[2]", "value": "> 20", "unit": "µM"}, {"measurement": "IC50", "setting": "[3]", "value": "> 20", "unit": "µM"}, {"measurement": "LD50", "setting": "[19]", "value": "< 80", "unit": "mg/kg"}, {"measurement": "IC50", "setting": "[12]", "value": "> 20", "unit": "µM"}, {"measurement": "LD50", "setting": "in vivo [20]", "value": 162, "unit": "mg/kg"}]}
